# Experimental data taken from the supplement of paper PMC10307832.
# Assays:
# Test in all cases: relative viability (nuclei count vs DMSO), 5 days (fraction); higher = more cells survive
# Crizotinib + Pemetrexed = compound: C[C@@H](Oc1cc(-c2cnn(C3CCNCC3)c2)cnc1N)c1c(Cl)ccc(F)c1Cl [Crizotinib] + Nc1nc2[nH]cc(CCc3ccc(C(=O)N[C@@H](CCC(=O)O)C(=O)O)cc3)c2c(=O)[nH]1 [Pemetrexed] (partner 0.2 µM)
# Summary of the method: (§1)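 A single step with final 0.05% Triton X-100, 1% formaldehyde and 1 ug/ml Hoechst fixed the cells and stained nuclei 5 days after treatment. Lung cancer cell lines in 1536-well plates had been treated by pin tool the day after seeding with one drug alone or a fixed anchor-drug dose plus five library-drug doses (not always all listed) in √10 steps, and nuclei were counted on 4× images. Relative viability is the ratio of nuclei in treated wells to nuclei in vehicle wells, taken as the median of duplicate plates.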
# Carfilzomib + Olaparib = compound: CC(C)C[C@H](NC(=O)[C@H](CCc1ccccc1)NC(=O)CN1CCOCC1)C(=O)N[C@@H](Cc1ccccc1)C(=O)N[C@@H](CC(C)C)C(=O)[C@@]1(C)CO1 [Carfilzomib] + O=C(c1cc(Cc2n[nH]c(=O)c3ccccc23)ccc1F)N1CCN(C(=O)C2CC2)CC1 [Olaparib] (partner 8 µM)
# Summary of the method: as §1
# Olaparib + Navitoclax = compound: O=C(c1cc(Cc2n[nH]c(=O)c3ccccc23)ccc1F)N1CCN(C(=O)C2CC2)CC1 [Olaparib] + CC1(C)CCC(c2ccc(Cl)cc2)=C(CN2CCN(c3ccc(C(=O)NS(=O)(=O)c4ccc(N[C@H](CCN5CCOCC5)CSc5ccccc5)c(S(=O)(=O)C(F)(F)F)c4)cc3)CC2)C1 [Navitoclax] (partner 0.5 µM)
# Summary of the method: as §1
# Olaparib + Foretinib = compound: O=C(c1cc(Cc2n[nH]c(=O)c3ccccc23)ccc1F)N1CCN(C(=O)C2CC2)CC1 [Olaparib] + COc1cc2c(Oc3ccc(NC(=O)C4(C(=O)Nc5ccc(F)cc5)CC4)cc3F)ccnc2cc1OCCCN1CCOCC1 [Foretinib] (partner 0.25 µM)
# Summary of the method: as §1
Cell Line,relative viability (Crizotinib + Pemetrexed; first compound 0.01 µM),relative viability (Crizotinib + Pemetrexed; first compound 0.03162 µM),relative viability (Crizotinib + Pemetrexed; first compound 0.1 µM),relative viability (Crizotinib + Pemetrexed; first compound 0.3162 µM),relative viability (Crizotinib + Pemetrexed; first compound 1 µM),relative viability (Carfilzomib + Olaparib; first compound 0.001 µM),relative viability (Carfilzomib + Olaparib; first compound 0.003162 µM),relative viability (Carfilzomib + Olaparib; first compound 0.01 µM),relative viability (Carfilzomib + Olaparib; first compound 0.03162 µM),relative viability (Carfilzomib + Olaparib; first compound 0.1 µM),relative viability (Olaparib + Navitoclax; first compound 0.08 µM),relative viability (Olaparib + Navitoclax; first compound 0.253 µM),relative viability (Olaparib + Navitoclax; first compound 2.53 µM),relative viability (Olaparib + Navitoclax; first compound 8 µM),relative viability (Olaparib + Foretinib; first compound 0.08 µM),relative viability (Olaparib + Foretinib; first compound 0.253 µM),relative viability (Olaparib + Foretinib; first compound 2.53 µM),relative viability (Olaparib + Foretinib; first compound 8 µM)
NCI-H1915,0.455,0.431,0.506,0.455,0.482,0.292,0.265,0.248,0.247,0.058,0.721,0.725,0.739,0.486,1.06,1.02,0.717,0.604
NCI-H1944,0.499,0.614,0.621,0.605,0.652,0.438,0.513,0.441,0.374,0.187,0.95,0.842,1.07,0.64,0.704,0.784,0.648,0.603
NCI-H1975,0.296,0.3,0.287,0.301,0.291,0.828,0.825,0.393,0.123,0.118,1.28,0.957,1.14,1.02,1.04,0.929,0.98,0.908
NCI-H1993,0.57,0.632,0.503,0.528,0.47,0.984,1.11,1.1,1.04,0.407,0.872,0.914,1.19,1.27,0.906,0.794,1.04,0.931
NCI-H2009,1.02,1.05,0.974,0.957,0.989,0.736,0.732,0.729,0.631,0.0565,1.31,1.05,1.1,0.996,1.35,1.16,1.17,1.06
NCI-H2023,0.149,0.226,0.172,0.189,0.209,0.484,0.521,0.486,0.133,0.0615,1.05,0.973,0.959,0.787,0.931,0.733,0.775,0.733
NCI-H2085,0.808,0.978,0.856,0.749,0.904,0.771,0.739,0.749,0.372,0.244,1.25,1.03,1.12,0.929,1.1,0.831,0.916,0.886
NCI-H2087,0.725,0.724,0.553,0.702,0.723,0.589,0.783,0.374,0.0505,0.0285,0.968,0.869,0.877,0.728,1.08,0.921,0.949,0.736
NCI-H2126,0.616,–,0.68,0.659,0.724,0.897,1.01,0.957,0.746,0.464,0.875,0.824,0.749,0.853,1.06,1.15,1.36,1.18
NCI-H2170,0.251,0.283,0.265,0.266,0.278,0.6,0.674,0.588,0.218,0.117,0.551,0.533,0.53,0.448,1.01,0.98,0.994,0.948
NCI-H2228,0.338,0.324,0.296,0.352,0.317,0.838,0.813,0.61,0.0953,0.124,1.14,0.809,0.707,0.587,0.884,0.767,0.805,0.765
NCI-H2347,0.387,0.441,0.446,0.457,0.416,0.502,0.587,0.564,0.503,0.363,0.9,0.779,0.692,0.562,0.902,0.945,0.786,0.977
NCI-H2405,0.875,1.09,1.04,0.993,–,0.836,0.946,0.915,0.699,0.211,1.21,0.878,0.869,0.677,1.11,1.01,0.946,0.956
NCI-H3122,0.192,0.196,0.195,0.182,0.192,0.654,0.611,0.609,0.452,0.269,0.948,0.976,0.964,0.86,0.895,0.946,0.873,0.781
PC-3 [JPC-3],0.883,1.23,1.19,–,1.05,1.17,1.16,1.18,0.652,0.301,0.784,0.729,0.743,0.76,1.03,0.948,0.985,0.948
PC-14,0.124,0.127,0.134,0.143,0.132,0.281,0.334,0.243,0.0393,0.0576,1.04,0.934,0.867,0.722,1.06,0.892,0.903,0.684
RERF-LC-KJ,0.475,0.459,0.461,0.473,0.517,1.05,0.898,0.91,0.379,0.22,1.04,0.862,0.998,1.09,0.922,0.797,1,0.919
